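96-well plates; 48 h exposure; 5 concentrations. Endpoints by linear interpolation between flanking doses. Not reached: highest tested concentration assigned. GI50 is the concentration that inhibits growth by half. TGI: concentration producing complete growth inhibition.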
Key:
Assay in all cases: inhibition of tumour cell growth, NCI panel, 48 h
786-0 renal = tested on: 786-0 renal
A498 renal = tested on: A498 renal
A549 NSCLC = tested on: A549 NSCLC
ACHN renal = tested on: ACHN renal
BT-549 breast = tested on: BT-549 breast
CAKI-1 renal = tested on: CAKI-1 renal
CCRF-CEM leukemia = tested on: CCRF-CEM leukemia
COLO 205 colon = tested on: COLO 205 colon
DU-145 prostate = tested on: DU-145 prostate
EKVX NSCLC = tested on: EKVX NSCLC
HCC-2998 colon = tested on: HCC-2998 colon
HCT-116 colon = tested on: HCT-116 colon
HCT-15 colon = tested on: HCT-15 colon
HL-60(TB) leukemia = tested on: HL-60(TB) leukemia
HOP-62 NSCLC = tested on: HOP-62 NSCLC
HOP-92 NSCLC = tested on: HOP-92 NSCLC
HS 578T breast = tested on: HS 578T breast
HT29 colon = tested on: HT29 colon
IGROV1 ovarian = tested on: IGROV1 ovarian
K-562 leukemia = tested on: K-562 leukemia
KM12 colon = tested on: KM12 colon
LOX IMVI melanoma = tested on: LOX IMVI melanoma
M14 melanoma = tested on: M14 melanoma
MALME-3M melanoma = tested on: MALME-3M melanoma
MCF7 breast = tested on: MCF7 breast
MDA-MB-231 breast = tested on: MDA-MB-231 breast
MDA-MB-435 = tested on: MDA-MB-435
MOLT-4 leukemia = tested on: MOLT-4 leukemia
NCI-H226 lung = tested on: NCI-H226 lung
NCI-H23 lung = tested on: NCI-H23 lung
NCI-H460 lung = tested on: NCI-H460 lung
NCI/ADR-RES ovarian = tested on: NCI/ADR-RES ovarian
OVCAR-3 ovarian = tested on: OVCAR-3 ovarian
OVCAR-4 ovarian = tested on: OVCAR-4 ovarian
OVCAR-5 ovarian = tested on: OVCAR-5 ovarian
OVCAR-8 ovarian = tested on: OVCAR-8 ovarian
PC-3 prostate = tested on: PC-3 prostate
RPMI-8226 leukemia = tested on: RPMI-8226 leukemia
RXF 393 renal = tested on: RXF 393 renal
SF-268 CNS = tested on: SF-268 CNS
SF-295 CNS = tested on: SF-295 CNS
SF-539 CNS = tested on: SF-539 CNS
SK-MEL-2 melanoma = tested on: SK-MEL-2 melanoma
SK-MEL-28 melanoma = tested on: SK-MEL-28 melanoma
SK-MEL-5 melanoma = tested on: SK-MEL-5 melanoma
SK-OV-3 ovarian = tested on: SK-OV-3 ovarian
SN12C renal = tested on: SN12C renal
SNB-19 CNS = tested on: SNB-19 CNS
SNB-75 CNS = tested on: SNB-75 CNS
SR leukemia = tested on: SR leukemia
SW-620 colon = tested on: SW-620 colon
T-47D breast = tested on: T-47D breast
TK-10 renal = tested on: TK-10 renal
U251 CNS = tested on: U251 CNS
UACC-257 melanoma = tested on: UACC-257 melanoma
UACC-62 melanoma = tested on: UACC-62 melanoma
UO-31 renal = tested on: UO-31 renal

## O=C(Nc1ccccc1)Nc1nc2ccc([N+](=O)[O-])cc2s1
786-0 renal
  GI50: 2410 nM
  TGI: 9.94 µM
A498 renal
  GI50: 254 nM
  TGI: 1710 nM
A549 NSCLC
  GI50: 2530 nM
  TGI: 14.4 µM
ACHN renal
  GI50: 2040 nM
  TGI: 10.2 µM
BT-549 breast
  GI50: 2020 nM
  TGI: 6.5 µM
CAKI-1 renal
  GI50: 1620 nM
  TGI: 7.91 µM
CCRF-CEM leukemia
  GI50: 1290 nM
  TGI: 13.1 µM
COLO 205 colon
  GI50: 2050 nM
  TGI: 4.38 µM
DU-145 prostate
  GI50: 3.33 µM
  TGI: 16.7 µM
EKVX NSCLC
  GI50: 1950 nM
  TGI: 11.9 µM
HCC-2998 colon
  GI50: 1380 nM
  TGI: 9.09 µM
HCT-116 colon
  GI50: 2220 nM
  TGI: 10.1 µM
HCT-15 colon
  GI50: 1650 nM
  TGI: 10.5 µM
HL-60(TB) leukemia
  GI50: 1460 nM
  TGI: 3.57 µM
HOP-62 NSCLC
  GI50: 2930 nM
  TGI: 11.5 µM
HOP-92 NSCLC
  GI50: 324 nM
  TGI: 2610 nM
HS 578T breast
  GI50: 2720 nM
  TGI: 12.4 µM
HT29 colon
  GI50: 3.46 µM
  TGI: 12.1 µM
IGROV1 ovarian
  GI50: 2490 nM
  TGI: 14.9 µM
K-562 leukemia
  GI50: 1470 nM
  TGI: 10.8 µM
KM12 colon
  GI50: 1770 nM
  TGI: 10.6 µM
LOX IMVI melanoma
  GI50: 1220 nM
  TGI: 3.68 µM
M14 melanoma
  GI50: 2640 nM
  TGI: 8.48 µM
MALME-3M melanoma
  GI50: 751 nM
  TGI: 7.71 µM
MCF7 breast
  GI50: 1420 nM
  TGI: 10.8 µM
MDA-MB-231 breast
  GI50: 1820 nM
  TGI: 4.56 µM
MDA-MB-435
  GI50: 2160 nM
  TGI: 9.74 µM
MOLT-4 leukemia
  GI50: 1960 nM
  TGI: 7.14 µM
NCI-H226 lung
  GI50: 1370 nM
  TGI: 4.3 µM
NCI-H23 lung
  GI50: 649 nM
  TGI: 3.57 µM
NCI-H460 lung
  GI50: 2060 nM
  TGI: 10.5 µM
NCI/ADR-RES ovarian
  GI50: 1790 nM
  TGI: 8.31 µM
OVCAR-3 ovarian
  GI50: 1910 nM
  TGI: 11.6 µM
OVCAR-4 ovarian
  GI50: 1310 nM
  TGI: 12.4 µM
OVCAR-5 ovarian
  GI50: 4.33 µM
  TGI: 17.4 µM
OVCAR-8 ovarian
  GI50: 2800 nM
  TGI: 14.5 µM
PC-3 prostate
  GI50: 1690 nM
  TGI: 9.89 µM
RPMI-8226 leukemia
  GI50: 690 nM
  TGI: 3.47 µM
RXF 393 renal
  GI50: 548 nM
  TGI: 3.02 µM
SF-268 CNS
  GI50: 2650 nM
  TGI: 13.3 µM
SF-295 CNS
  GI50: 1230 nM
  TGI: 3.11 µM
SF-539 CNS
  GI50: 2120 nM
  TGI: 10.4 µM
SK-MEL-2 melanoma
  GI50: 1690 nM
  TGI: 5.15 µM
SK-MEL-28 melanoma
  GI50: 2450 nM
  TGI: 12.1 µM
SK-MEL-5 melanoma
  GI50: 471 nM
  TGI: 1750 nM
SK-OV-3 ovarian
  GI50: 2330 nM
  TGI: 9.58 µM
SN12C renal
  GI50: 1580 nM
  TGI: 6.79 µM
SNB-19 CNS
  GI50: 1740 nM
  TGI: 12.9 µM
SNB-75 CNS
  GI50: 1870 nM
  TGI: 5.74 µM
SR leukemia
  GI50: 746 nM
  TGI: 4.17 µM
SW-620 colon
  GI50: 2970 nM
  TGI: 12.7 µM
T-47D breast
  GI50: 533 nM
  TGI: 9.77 µM
TK-10 renal
  GI50: 2830 nM
  TGI: 10.7 µM
U251 CNS
  GI50: 1970 nM
  TGI: 12.9 µM
UACC-257 melanoma
  GI50: 1490 nM
  TGI: 7.7 µM
UACC-62 melanoma
  GI50: 860 nM
  TGI: 8.13 µM
UO-31 renal
  GI50: 1560 nM
  TGI: 11.5 µM

From PubChem BioAssay (NCI)
